Measured values as given in paper PMC12560828, “Chemical structure drives developmental toxicity of alkyl-substituted naphthalenes in zebrafish” (Environment international, 2025).
“And” between values parts separate entries of the source, which are not always exact repeats. Equal values may be shown once.

Assays:
Assay type in all cases: in vivo, Danio rerio
[1] = system: zebrafish larvae, 120 hpf; test: Larval photomotor response (LPR) assay after vial exposure; details: LPR
Method in brief: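 Embryos bleached at 6 hpf, exposed in sealed glass vials (8 per vial, DMSO stock at 200x) with rotation overnight at 28 °C, then singulated into chemical-free medium and kept dark at 28 °C. Movement tracked minutes 6–24 at 120 hpf, 6 s bins log-normalized to AUC; LEL per light/dark period from first cycle; nominal water concentrations, dead/malformed larvae excluded.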

[2] = system: zebrafish embryos; test: Body burden measurement (GC-MS/MS) and concentration uptake ratio, vial exposure; details: 20 μM exposure; for measured concentration in embryo extract: 32 pooled embryos, 0.5 mL extract, single replicates
Experimental: (§1) Body burden was measured for exposure to five chemicals at two timepoints: 24 and 48 hpf. […] The exposure concentration was chosen as it was the maximum possible concentration that ensured enough viable animals for collection at 48 hpf and allowed direct comparison of chemical uptake at the same exposure concentration.
(§2) Chemicals were exposed at 20 μM following the exposure procedure detailed in section 1.3, 24 vials per chemical. At 24 hpf, embryos were pooled in groups of 32 embryos (combining embryos from 4 vials) into 1.5 mL polypropylene RINO-safe lock tubes (n = 3 per chemical treatment, n = 3 per control). Tubes were briefly placed on ice to reduce embryo movement (<1 min); the remaining medium was removed; the tube was then flash frozen in liquid nitrogen and stored at −20 °C until extraction. Embryos in the remaining vials were plated as previously described in section 1.3 until collection at 48 hpf following the same procedure as 24 hpf collections (n = 3 per chemical treatment, n = 1 control).
(§3) Tissue extraction was performed as previously reported ([Rude et al., 2025]). Each sample was spiked with 25 μL internal standard in ethyl acetate and 100 μL of 1 mm glass beads (Next Advance, Troy, NY United States) were added to the RINO-safe lock tubes containing thawed tissue samples and left on ice for 10 min 250 mg of Na2SO4 and 200 μL of ethyl acetate were added to each tube and vortexed. Tubes were homogenized at speed 8 for 6 min in a Bullet Blender (Next Advance, Troy, NY, United States). 300 μL of ethyl acetate was added to each tube and the homogenization step was repeated until no pieces of non-homogenized fish tissue remained. Samples were then centrifuged for 10 min at 4 °C, 1600g. Sample supernatant (0.5 mL) was collected into amber vials and stored at 4 °C until chemical analysis.
(§4) Samples were analyzed for quantitation and identification of 161 PAHs. The method was performed with an Agilent 7890 gas chromatograph (GC), with a 7000C triple quadrupole mass spectrometer (MS/MS) using an Agilent J&W PAH select (30 m × 250 μm × 0.15 μm GC column). Calibration for each analyte utilized at least a 4-point (range: 4–7, median 6 points, n = 161) curve with R^2 ≥ 0.99. Specific instrument conditions were modified from [Anderson et al. (2015)] and are detailed in Table S3. GC–MS/MS data was analyzed using MassHunter Quantitative Analysis v.B.06.00 SP1 build 6.0.388.1 software (Agilent Corp. Wilmington,DE) ([Anderson et al., 2015]). Dynamic muti-reaction monitoring mode was used during analyses, and all PAHs were identified using analytical standards obtained from multiple sources (Table S1). Collison energies were optimized for each individual unsubstituted PAH, alkylation series (C1, C2, etc.), and when possible, specific alkylation group (i.e. methyl, ethyl, etc.).
(§5) Body burden concentrations based on average embryo wet weight at each timepoint were determined by the equation below. Total measured chemical was calculated from ng/mL concentrations times sample volume (0.5 mL). Bodyburdennmol/mgbw=total measured chemicalnmol/number of fish32×average body weightmg
(§6) Average body weights at 24 hpf and 48 hpf were assumed to be 0.31 mg and 0.26 mg, respectively as determined previously ([Rericha et al., 2024]). Statistical analysis to compare time points within chemicals was performed using a two-sided Student’s t-test (p-value ≤ 0.05). An ANOVA with a follow-up Dunn’s test was used to compare body burden between chemicals at 24 hpf (p-value ≤ 0.05). Body burden concentrations at 24 hpf were compared to the estimated percent effect of each measured chemical at the exposure concentration used for body burden analysis (20 μM). These estimates were made using the fitted concentration-response curves previously described in section 2.3.2.2.
(§7) Concentration uptake ratios between vial exposures and 96-well plate exposures were compared using a two-sided Student’s t-test, p-values ≤ 0.05 were considered significant. […]

[3] = as above; details: zebrafish (Danio rerio), whole embryos (32 pooled, ethyl acetate extract), other: waterborne exposure of embryos in sealed vials, 20 μM exposure, 32 pooled embryos, 0.5 mL extract, single replicates, read-out: measured concentration in embryo extract
Experimental: as §1, §2, §3, §4, §5, §6, §7

[4] = period dark, round 1, conc 3.125
[5] = period dark, round 1, conc 6.25
[6] = period dark, round 1, conc 12.5
[7] = period light, round 1, conc 3.125
[8] = period light, round 1, conc 6.25
[9] = period light, round 1, conc 12.5
[10] = period dark, round 2, conc 37.5
[11] = period light, round 2, conc 37.5

Row | Structure (SMILES) | fold_change [1, 4] | fold_change [1, 5] | fold_change [1, 6] | fold_change ([1]; period dark, round 1, conc 25) | fold_change [1, 7] | fold_change [1, 8] | fold_change [1, 9] | fold_change ([1]; period light, round 1, conc 25) | measured concentration in embryo extract ([2]; 24 hpf) | measured concentration in embryo extract ([2]; 48 hpf) | concentration at 24 hpf, 20 μM [3] [ng/mL] | concentration at 48 hpf, 20 μM [3] [ng/mL] | fold_change ([1]; period dark, round 2, conc 30) | fold_change [1, 10] | fold_change ([1]; period light, round 2, conc 30) | fold_change [1, 11] | other results
1 | Cc1ccc2ccc(C)cc2c1 [2,7-dimethylnaphthalene] | 0.1561 | -0.165 | -0.13 | -0.7363 | 0.7628 | 0.4574 | 1.067 | 1.005 | 19900 ng/mL | 8080 ng/mL and 7630 ng/mL | 26500 | 8890 | – | – | – | – | fold_change ([1]; period dark, round 1, conc 50): -0.8227; fold_change ([1]; period light, round 1, conc 50): 0.2181
2 | Cc1cc(C)c2c(C)cccc2c1 [2,4,5-trimethylnaphthalene] | -0.1188 | -0.09148 | -0.4407 | – | -0.1438 | -0.1964 | 0.215 | – | 9270 ng/mL and 6860 ng/mL | 4950 ng/mL and 4550 ng/mL and 2080 ng/mL | 9620 | – | – | – | – | – | fold_change ([1]; period dark, round 2, conc 12.8): -0.3131; fold_change ([1]; period dark, round 2, conc 16): -0.104; fold_change ([1]; period dark, round 2, conc 20): -0.2326; fold_change ([1]; period light, round 2, conc 12.8): -0.6609; fold_change ([1]; period light, round 2, conc 16): 0.3746; fold_change ([1]; period light, round 2, conc 20): 0.3257; percent reduction in body burden between 24 and 48 hpf [2]: 46%
3 | CCc1ccc2ccccc2c1 [2-ethylnaphthalene] | -0.0209 | -0.02917 | -0.4131 | -0.9177 | -0.3417 | 0.05317 | 0.3434 | -0.2321 | – | – | – | – | -0.0665 | -0.3116 | 0.3708 | -0.3232 | –
4 | Cc1ccc2cccc(C)c2c1 [1,7-dimethylnaphthalene] | -0.2153 | -0.5415 | -0.6708 | -0.6391 | -0.5634 | -0.1569 | -0.05053 | 0.1308 | 33000 ng/mL and 33300 ng/mL | 11600 ng/mL and 10100 ng/mL | 34600 | 11300 | – | – | – | – | body burden concentration ([2]; 24 hpf): highest concentration
5 | Cc1cccc2c(C)cccc12 [1,5-dimethylnaphthalene] | 0.2385 | 0.04355 | 0.0001175 | -0.1166 | 0.2204 | 0.1087 | 0.8122 | 0.799 | 28000 ng/mL and 23900 ng/mL | 9300 ng/mL and 7200 ng/mL | 29200 | 9160 | -0.72 | -0.6231 | 0.3918 | 0.2643 | –
